Source: patent US4289883A, “Carbostyril compounds” (Otsuka Pharmaceutical Co., Ltd., priority 1976, dated 1981)
Where two headings read alike, the source gives them in different places.

Legend:
β-adrenoreceptor = test: β-adrenergic blocking activity in anesthetized dogs (antagonism to isoprenaline effects on heart rate, diastolic blood pressure and air-way resistance); type: in vivo; conditions: 10 minutes after i.v. test compound 300 μg/kg; for Inhibition (%) dBP (Diastolic Blood Pressure): antagonism to isoprenaline (1 μg/kg i.v.) induced depression of diastolic blood pressure; for Inhibition (%) dBP (Diastolic Blood Pressure) / Inhibition (%) AR (AirWay Resistance): dogs; for Inhibition (%) HR (Heart Rate): antagonism to isoprenaline (1 μg/kg i.v.) induced increase in heart rate, male hybrid adult dogs; for Inhibition (%) AR (AirWay Resistance): antagonism to isoprenaline depression of histamine (5 μg/kg i.v.) induced increase of air-way resistance
Procedure: The β-adrenergic blocking activity of the compounds of this invention was determined as follows:
Male hybrid adult dogs, weighing 10 to 16 kg, were anesthesized with sodium pentobarbital administered intravenously at a level of 30 mg/kg of body weight, and a cannula was inserted into the trachea of each of the anesthesized dogs. In order to avoid blood coagulation, heparin was administered intravenously at a level of 1000 units and thereafter a cannula was inserted into the right femoral artery. The experiments were conducted under artificial respiration at a rate of 20 ml/kg, 18 r.p.m.
The above parameters were continuously recorded on a polygraph (8S 28 Type, tradename of Sanei Sokki Co., Japan). During the experiment, gallamine was administered intravenously at a dosage of 3 mg/kg at one-hour intervals to avoid fluctuation of air-way resistance.
The β-adrenergic blocking activity of each of the test compounds was evaluated in terms of antagonism (Inhibition %) to the depression at the diastolic blood pressure (dBP) and to the increase in the heart rate induced by the intravenous administration of isoprenaline (1 μg/kg) and in terms of antagonism (Inhibition %) to the depression by isoprenaline in increase of air-way resistance which was induced by intravenous administration of histamine (5 μg/kg). In this case, histamine was administered 45 seconds after the administration of isoprenaline.

[1] = acute toxicity (LD50), i.v. and p.o.; design: species or system rats; conditions: rat, in vivo
Procedure: Further, the acute toxicity of the compounds of the present invention having the formula (I) was determined by intravenous administration (i.v.) and oral administration (p.o.) in 5 to 6 group of rats (dd, strain; body weight, 18 to 22 g; 10 rats in each group) which have been fasted for 12 hours prior to the test.

Row | Structure (SMILES) | Inhibition (%) dBP (Diastolic Blood Pressure) (β-adrenoreceptor) [%] | Inhibition (%) HR (Heart Rate) (β-adrenoreceptor) [%] | Inhibition (%) AR (AirWay Resistance) (β-adrenoreceptor) [%] | LD50 ([1]; iv, Rats (Female), read-out: LD50 (50% lethal dose) i.v.) [mg/kg] | LD50 ([1]; iv, Rats (Male), read-out: LD50 (50% lethal dose) i.v.) [mg/kg] | LD50 ([1]; po, Rats (Female), read-out: LD50 (50% lethal dose) p.o.) [mg/kg] | LD50 ([1]; po, Rats (Male), read-out: LD50 (50% lethal dose) p.o.) [mg/kg]
1 | COc1ccc(CCNCC(O)COc2ccc(OCC(C)=O)c3c2CCC(=O)N3)cc1OC (stereo not drawn) [Sample 4] | 15.1 | 44.6 | 2.7 |  |  |  | 
2 | CC(=O)Oc1ccc(OCC(O)CNC(C)(C)C)c2c1N(Cc1ccccc1)C(=O)CC2 (stereo not drawn) [Sample 13] | 77.5 | 85.2 | 59.3 |  |  |  | 
3 | CC(C)NCC(O)COc1ccc(CC(N)=O)cc1 (stereo not drawn) [Atenolol, reference compound] | 26.9 | 52.3 | 9.8 |  |  |  | 
4 | COc1ccc(CCNCC(O)COc2cccc3c2CCC(=O)N3)cc1OC (stereo not drawn) [Comparison Compound 2, reference compound] | 65.6 | 87.2 | 79.1 |  |  |  | 
5 | C=CCOc1ccc(OCC(O)CNCCc2ccc(OC)c(OC)c2)c2c1NC(=O)CC2 (stereo not drawn) [Sample 2] | 23.5 | 50.2 | 24.5 |  |  |  | 
6 | CCOC(=O)COc1ccc(OCC(O)CNCCc2ccc(OC)c(OC)c2)c2c1NC(=O)CC2 (stereo not drawn) [Sample 15] | 8.5 | 10.2 | 2.7 |  |  |  | 
7 | CC(C)(C)NCC(O)COc1cccc2c1CCC(=O)N2 (stereo not drawn) [Comparison Compound 1, reference compound] | 100 | 100 | 100 |  |  |  | 
8 | C#CCOc1ccc(OCC(O)CNC2CCCCC2)c2c1NC(=O)CC2 (stereo not drawn) [Sample 21] | 22.0 | 17.3 | 8.3 |  |  |  | 
9 | COCCOc1ccc(OCC(O)CNC(C)C)c2c1NC(=O)CC2 (stereo not drawn) [Sample 17] | 34.1 | 41.8 | 9.7 |  |  |  | 
10 | C=CCOc1ccc(OCC(O)CNCC(c2ccccc2)c2ccccc2)c2c1NC(=O)CC2 (stereo not drawn) [Sample 10] | 20.4 | 25.8 | 3.5 |  |  |  | 
11 | C#CCOc1ccc(OCC(O)CNC(c2ccccc2)c2ccccc2)c2c1NC(=O)CC2 (stereo not drawn) [Sample 7] | 20.5 | 18.4 | 8.0 |  |  |  | 
12 | COc1ccc(CCNCC(O)COc2ccc(OCCO)c3c2CCC(=O)N3)cc1OC (stereo not drawn) [Sample 8] | 16.8 | 26.3 | 8.1 |  |  |  | 
13 | C#CCOc1ccc(OCC(O)CNCC=C)c2c1NC(=O)CC2 (stereo not drawn) [Sample 5] | 35.0 | 50.5 | 24.3 |  |  |  | 
14 | C=CCOc1ccc(OCC(O)CNC(C)(C)C)c2c1NC(=O)CC2.Cl (stereo not drawn) [Sample 18, 8-allyloxy-5-(3-t-butylamino-2-hydroxypropoxy)-3,4-dihydrocarbostyril hydrochloride] | 100 | 34.6 | 0 |  |  |  | 
15 | C#CCOc1ccc(OCC(O)CNCCc2ccc(OC)c(OC)c2)c2ccc(=O)[nH]c12 (stereo not drawn) [Sample 16] | 40.9 | 55.3 | 13.7 |  |  |  | 
16 | C#CCOc1ccc(OCC(O)CNC(C)(C)Cc2ccccc2)c2c1NC(=O)CC2 (stereo not drawn) [Sample 9] | 75.7 | 61.7 | 41.3 |  |  |  | 
17 | COCCOc1ccc(OCC(O)CNCCc2ccc(OC)c(OC)c2)c2c1NC(=O)CC2.O=C(O)/C=C\C(=O)O (stereo not drawn) [8-(2-methoxyethoxy)-5-[3-(3,4-dimethoxyphenethylamino)-2-hydroxypropoxy]-3,4-dihydrocarbostyril maleate] |  |  |  | 160 | 185 | 1450 | 1550
18 | COCCOc1ccc(OCC(O)CNCCc2ccc(OC)c(OC)c2)c2c1NC(=O)CC2 (stereo not drawn) [Sample 1] | 28.3 | 45.5 | 25.0 |  |  |  | 
19 | C#CCOc1ccc(OCC(O)CNCCc2ccc(OC)c(OC)c2)c2c1NC(=O)CC2 (stereo not drawn) [Sample 3] | 39.5 | 57.6 | 14.0 |  |  |  | 
20 | CC(C)NCC(O)COc1ccc(OC(=O)C2CCCCC2)c2c1CCC(=O)N2 (stereo not drawn) [Sample 14] | 36.3 | 43.2 | 27.6 |  |  |  | 
21 | COc1ccc(CCNCC(O)COc2ccc(OCC(=O)O)c3c2CCC(=O)N3)cc1OC (stereo not drawn) [Sample 19] |  | 50.0 | 9.4 |  |  |  | 
22 | COc1ccc(OCC(O)CNC(C)(C)C)c2c1NC(=O)CC2 (stereo not drawn) [Prior Art Compound 2, reference compound] | 83.7 | 82.1 | 80.2 |  |  |  | 
23 | CC(C)(C)NCC(O)COc1ccc(O)c2c1CCC(=O)N2 (stereo not drawn) [Prior Art Compound 1, reference compound] | 100 | 100 | 100 |  |  |  | 
24 | COCCOc1ccc(OCC(O)CNCCOc2ccc(OC)cc2)c2c1NC(=O)CC2 (stereo not drawn) [Sample 20] | 18.1 | 23.7 | 8.3 |  |  |  | 
25 | CC(C)(C)NCC(O)COc1ccc(OCc2ccccc2)c2c1CCC(=O)N2 (stereo not drawn) [Prior Art Compound 3, reference compound] | 10.2 | 71.3 | 67.8 |  |  |  | 
26 | C#CCOc1ccc(OCC(O)CNC(C)(C)C)c2c1NC(=O)CC2 (stereo not drawn) [Sample 6] | 94.5 | 100 | 47.6 |  |  |  | 
27 | COc1ccc(CCNCC(O)COc2ccc(OCC(=O)O)c3c2CCC(=O)N3)cc1OC (stereo not drawn) [Sample 11] | 47.1 | 50.0 | 9.4 |  |  |  | 
28 | COc1ccc(CCNCC(O)COc2ccc(OCC(N)=O)c3c2CCC(=O)N3)cc1OC (stereo not drawn) [Sample 12] | 44.2 | 57.9 | 15.2 |  |  |  | 
